Test results as given in patent publication US11911386B2, “Methods of treating B-cell proliferative disorder” (BeiGene Switzerland GmbH, priority 2022, dated 2024).

How the values were obtained:
[1] = Phase 1 DDI study: treatment-emergent adverse events; format: in vivo, human; details: N = 13
Experimental: Safety was assessed by monitoring and recording of adverse events (AEs), serious adverse events (SAEs), clinical laboratory tests, physical examinations, and vital signs. […] A TEAE was defined as an AE that started during or after the first dose or started before the first dose and increased in severity after the first dose. AEs were classified based on MedDRA Version 24.0.
Safety and tolerability were assessed, when applicable, by incidence, severity, change from baseline values, and abnormal values for all relevant parameters such as AEs, laboratory parameters, vital signs, and physical examination.

[2] = cited from earlier work
CYP3A = details: coadministration of rifabutin with midazolam; cited from earlier work
[3] = RESONATE / RESONATE2 trials: ibrutinib effect (non-inferiority margin derivation); format: in vivo, human
panel of 370 kinases = assay: Kinome profiling at 100xIC50 (BTK) concentrations; format: biochemical; details: 100×IC50 (BTK) concentration
[4] = cited from earlier work; remark: listed apart in the source
[5] = phase 3, relapsed/refractory CLL

Row | SMILES | Chromaturia TEAE [1] | Overall TEAEs [1] | Renal and urinary disorders TEAE [1] | Decrease of systemic levels after multiple doses (auto-induction) ([2]; in vivo) | Mean t1/2 (standard deviation) ([2]; single oral dose of 300 mg) | Tmax ([2]; single oral dose of 300 mg) | Reduction in midazolam exposure (CYP3A) | Pooled PFS HR, fixed-effect meta-analysis [3] | Off-target kinases inhibited (panel of 370 kinases) | AEs leading to treatment discontinuation ([4]; long-term follow-up, 132 patients) | Arthralgia, any grade [4, 5] | Atrial fibrillation, any grade [4, 5] | Cough [4, 5] | Fatigue grade ≥3 [4, 5] | Headaches [4, 5] | Hypertension, any grade [4, 5] | Infections grade ≥3 [4, 5]
1 | CO[C@H]1/C=C/O[C@@]2(C)Oc3c(C)c(O)c4c(c3C2=O)C2=NC3(CCN(CC(C)C)CC3)NC2=C(NC(=O)/C(C)=C\C=C\[C@H](C)[C@H](O)[C@@H](C)[C@@H](O)[C@@H](C)[C@H](OC(C)=O)[C@@H]1C)C4=O [rifabutin] | 6 (46.2) n (%) | 6 (46.2) n (%) | 6 (46.2) n (%) | 38% | 45 (standard deviation, 17) hours | 2 to 4 h | ≈ 3.2 fold |  |  |  |  |  |  |  |  |  | 
2 | C=CC(=O)N1CCC[C@@H](n2nc(-c3ccc(Oc4ccccc4)cc3)c3c(N)ncnc32)C1 [ibrutinib, 1-[(3R)-3-[4-amino-3-(4-phenoxyphenyl)-1H-pyrazolo[3,4-d]pyrimidin-1-yl]-1-piperidinyl]-2-propen-1-one] |  |  |  |  |  |  |  | 0.120 | 17 kinases | 13% |  |  |  |  |  |  | 
3 | CC#CC(=O)N1CCC[C@H]1c1nc(-c2ccc(C(=O)Nc3ccccn3)cc2)c2c(N)nccn12 [acalabrutinib] |  |  |  |  |  |  |  |  | 15 kinases |  | 15.8% | 9.0% | 28.9% | 3.4% | 34.6% | 8.6% | 30.8%
